TGI data for 18 molecules are collected here from PubChem BioAssay (NCI).

Some test systems named below: M14 melanoma; COLO 205 colon; SNB-75 CNS; ACHN renal; A549 NSCLC; K-562 leukemia; A498 renal; 786-0 renal; SK-MEL-5 melanoma; NCI/ADR-RES ovarian; SF-295 CNS; HCC-2998 colon; MALME-3M melanoma.
Experiment in all cases: inhibition of tumour cell growth, NCI panel, 48 h

SMILES strings stand for the structures.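 48-hour exposure; five concentrations; linearly interpolated endpoints. Definition used: TGI = concentration required for complete inhibition of growth.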

In the case of `CC1CC/C(=C\c2ccc(Cl)cc2)C(=O)/C1=C\c1ccc(Cl)cc1` (configuration not stated), the TGI is 48.8 µM in the assay with M14 melanoma; 73 µM in the assay on COLO 205 colon; over 100 µM in the assay with SNB-75 CNS; over 100 µM with ACHN renal; over 100 µM with A549 NSCLC; over 100 µM in the assay on K-562 leukemia. For the same molecule, the TGI is 17.7 µM in the assay with A498 renal, over 100 µM with 786-0 renal and 40.1 µM with SK-MEL-5 melanoma.

For `NS(=O)(=O)c1ccc(NC(=S)/N=C/c2c(O)c3ccccc3[nH]c2=O)cc1`, the TGI in the assay with M14 melanoma, in the assay with COLO 205 colon, in the assay on SNB-75 CNS, with ACHN renal, in the assay on A549 NSCLC and in the assay on NCI/ADR-RES ovarian was over 100 µM each time. Also, the TGI in the assay with K-562 leukemia, in the assay with 786-0 renal, with SF-295 CNS, with HCC-2998 colon and with SK-MEL-5 melanoma was over 100 µM in each case.

On to `O=C1CCCSCCCC(=O)CCCSCCC1`, for which the TGI in the assay with M14 melanoma, in the assay with COLO 205 colon, in the assay with SNB-75 CNS, in the assay with A549 NSCLC, in the assay on NCI/ADR-RES ovarian and in the assay with K-562 leukemia was over 100 µM throughout. Besides, the TGI in the assay with 786-0 renal, in the assay with SF-295 CNS, with HCC-2998 colon and with SK-MEL-5 melanoma was over 100 µM throughout.

For the molecule `COc1cccc2c1C(=O)c1c(O)c3c(c(O)c1C2=O)CC(O)(C(C)=O)CC3OC1CC([N+](C)(C)C)C(O)C(C)O1` (configuration not stated), the TGI in the assay with M14 melanoma, with MALME-3M melanoma, with COLO 205 colon, in the assay with SNB-75 CNS, in the assay on ACHN renal and in the assay with A549 NSCLC was over 100 µM each time. Further, the TGI in the assay with K-562 leukemia, in the assay on A498 renal, in the assay with 786-0 renal, in the assay with SF-295 CNS, in the assay on HCC-2998 colon and in the assay with SK-MEL-5 melanoma was over 100 µM each time.

`CN(C(=O)C12C3C4C1C1C2C3C41C(=O)O)C(C)(C)C` (configuration not stated): the TGI in the assay with M14 melanoma, with COLO 205 colon, in the assay on SNB-75 CNS, with ACHN renal, in the assay on A549 NSCLC and in the assay on NCI/ADR-RES ovarian was over 100 µM in each case. For the same molecule, the TGI in the assay on K-562 leukemia, in the assay on A498 renal, in the assay with 786-0 renal, with SF-295 CNS, in the assay with HCC-2998 colon and in the assay with SK-MEL-5 melanoma was over 100 µM each time.

As to `C=CCN1C(=O)/C(=C/c2ccccc2)N=C1SC/C=C/C`, the TGI in the assay with M14 melanoma, with COLO 205 colon, in the assay with SNB-75 CNS, in the assay on ACHN renal, with A549 NSCLC and in the assay on NCI/ADR-RES ovarian was over 100 µM in each case. In addition, the TGI in the assay on K-562 leukemia was over 100 µM; in the assay on A498 renal it was over 100 µM; in the assay on 786-0 renal it was over 100 µM; with SF-295 CNS, over 100 µM; with HCC-2998 colon, 76.6 µM; with SK-MEL-5 melanoma, 47.6 µM.

For the molecule `CC[N+](C)(C)c1ccc(C(=C2C=CC(=[N+](C)C)C=C2)c2ccc(N(C)C)cc2)cc1`, the TGI in the assay on M14 melanoma was 31.4 µM; in the assay on MALME-3M melanoma it was 66.3 µM; in the assay with COLO 205 colon, over 100 µM; in the assay with SNB-75 CNS it was 33.8 µM; in the assay with ACHN renal it was 62.1 µM; in the assay on A549 NSCLC, over 100 µM. The TGI with K-562 leukemia amounted to 15.2 µM; in the assay on A498 renal, 48.4 µM; in the assay with 786-0 renal, 29 µM; in the assay with SF-295 CNS, 70.1 µM; in the assay on HCC-2998 colon it was 32.3 µM; in the assay with SK-MEL-5 melanoma, 26.9 µM.

Take `COc1ccc2c(c1)nc1n2C(c2c(F)cccc2F)SC1` (configuration not stated): the TGI in the assay on M14 melanoma, with COLO 205 colon, in the assay with SNB-75 CNS, with ACHN renal, in the assay on A549 NSCLC and in the assay with NCI/ADR-RES ovarian was over 100 µM throughout. For the same molecule, the TGI in the assay with K-562 leukemia is over 100 µM; in the assay with A498 renal, over 100 µM; in the assay on 786-0 renal it was over 100 µM; in the assay with SF-295 CNS, over 100 µM; with HCC-2998 colon, over 100 µM; in the assay with SK-MEL-5 melanoma it was 56.4 µM.

With `COc1ccc(OC)c2sc(N3C(=O)/C(=C/c4ccc(N(C)C)cc4)N=C3c3ccccc3)nc12`, the TGI with M14 melanoma, with COLO 205 colon, in the assay on SNB-75 CNS, with ACHN renal, in the assay with A549 NSCLC and with NCI/ADR-RES ovarian was over 100 µM in each case. Moreover, the TGI in the assay on K-562 leukemia, with A498 renal, in the assay on 786-0 renal, in the assay on SF-295 CNS, in the assay with HCC-2998 colon and with SK-MEL-5 melanoma was over 100 µM throughout.

As to `CC12CC(=O)OC(Cc3ccccc31)O2` (configuration not stated), the TGI with M14 melanoma, in the assay with MALME-3M melanoma, in the assay with COLO 205 colon, in the assay on SNB-75 CNS, with ACHN renal and with A549 NSCLC was over 100 µM throughout. Moreover, the TGI with K-562 leukemia, in the assay with 786-0 renal, in the assay with SF-295 CNS and in the assay with HCC-2998 colon was over 100 µM throughout.

`Cc1c2[nH]c3ccc(Br)cc3c2c(C)c2[nH]ccc(=O)c12`: the TGI was 30.9 µM in the assay with M14 melanoma; 28 µM in the assay with MALME-3M melanoma; 27.1 µM in the assay on COLO 205 colon; over 100 µM in the assay on SNB-75 CNS; 22.5 µM with ACHN renal; 25.7 µM in the assay on A549 NSCLC. For the same molecule, the TGI in the assay with K-562 leukemia was 55.7 µM; with 786-0 renal it was 25.1 µM; in the assay on SF-295 CNS it was 28.7 µM; in the assay on HCC-2998 colon it was 31.1 µM; with SK-MEL-5 melanoma, 64.2 µM.

`O=S(=O)(O)c1cc(S(=O)(=O)O)c2c(N=Nc3ccccc3)c(O)ccc2c1`: the TGI in the assay with M14 melanoma, with COLO 205 colon, in the assay with SNB-75 CNS, in the assay on A549 NSCLC, in the assay with NCI/ADR-RES ovarian and in the assay with K-562 leukemia was over 100 µM in each case. For the same molecule, the TGI in the assay on A498 renal, in the assay on 786-0 renal, in the assay with SF-295 CNS and in the assay with SK-MEL-5 melanoma was over 100 µM each time.

For the molecule `COC1=C(OC)C(=O)c2cc(SC)c(=O)c(SC)cc2C1=O`, the TGI in the assay with M14 melanoma is 32.6 µM; in the assay on COLO 205 colon, over 100 µM; in the assay on SNB-75 CNS, 28.1 µM; with ACHN renal it was 28.9 µM; in the assay on A549 NSCLC it was 43.8 µM; in the assay on K-562 leukemia, 33.3 µM. Moreover, the TGI was 66.3 µM with A498 renal; 35.2 µM in the assay on 786-0 renal; 29.2 µM with SF-295 CNS; over 100 µM in the assay on HCC-2998 colon; 25.9 µM in the assay with SK-MEL-5 melanoma.

For `CN1NC2=NCCN=C3NN(C)C(=NCCN=C1S2)S3`, the TGI with M14 melanoma, in the assay on COLO 205 colon, with SNB-75 CNS, with ACHN renal, in the assay with A549 NSCLC and in the assay on K-562 leukemia was over 100 µM throughout. Also, the TGI in the assay with A498 renal, in the assay on 786-0 renal, in the assay with SF-295 CNS and in the assay on SK-MEL-5 melanoma was over 100 µM each time.

In the case of `CC1=NN(c2cccc(Cl)c2)C(=N/c2nc3ccccc3s2)/C1=C\c1ccccc1O`, the TGI in the assay with M14 melanoma was over 100 µM; with SNB-75 CNS it was over 100 µM; in the assay on ACHN renal, 74.3 µM; with NCI/ADR-RES ovarian, 63.7 µM; with K-562 leukemia, over 100 µM; with A498 renal, 52.4 µM. Also, the TGI with 786-0 renal was over 100 µM; with SF-295 CNS it was 86.2 µM; with HCC-2998 colon it was 45.4 µM; with SK-MEL-5 melanoma, 46.2 µM.

Consider `CC1=CC(=C(c2ccc(N)c(C)c2)c2ccc(N)c(C)c2)C=CC1=N`, for which the TGI in the assay with M14 melanoma was determined as 18.3 µM; with MALME-3M melanoma it was 11.2 µM; in the assay with COLO 205 colon, 5.87 µM; in the assay on SNB-75 CNS, 8.91 µM; in the assay on ACHN renal, 69.2 µM; in the assay with A549 NSCLC, 28.6 µM. For the same molecule, the TGI was 22.5 µM in the assay with K-562 leukemia; over 100 µM with A498 renal; 21.1 µM in the assay on 786-0 renal; 11.7 µM in the assay with SF-295 CNS; 14.4 µM with HCC-2998 colon; 5.75 µM in the assay on SK-MEL-5 melanoma.

Consider `C=C[C@@]1(C)CC(=O)[C@]2(O)[C@@]3(C)[C@@H](OC(C)=O)CCC(C)(C)[C@@H]3[C@H](O)[C@H](OC(C)=O)[C@@]2(C)O1`, for which the TGI in the assay with M14 melanoma is over 100 µM; with SNB-75 CNS it was 87.7 µM; in the assay with ACHN renal, over 100 µM; in the assay on A549 NSCLC, over 100 µM; in the assay with NCI/ADR-RES ovarian, over 100 µM; in the assay on K-562 leukemia, over 100 µM. Also, the TGI in the assay on A498 renal, with 786-0 renal, in the assay on SF-295 CNS and in the assay with HCC-2998 colon was over 100 µM in each case.

For the molecule `O=c1ccc(-c2ccc(-n3ccnc3)cc2)nn1CCO`, the TGI in the assay with M14 melanoma, in the assay on MALME-3M melanoma, in the assay with COLO 205 colon, in the assay with SNB-75 CNS, in the assay on ACHN renal and in the assay on A549 NSCLC was over 100 µM each time. The TGI in the assay on A498 renal, with 786-0 renal, in the assay on SF-295 CNS, with HCC-2998 colon and with SK-MEL-5 melanoma was over 100 µM in each case.
